# Source: US20240252677A1, “ONE-COMPONENT DELIVERY SYSTEM FOR NUCLEIC ACIDS” (The Trustees of the University of Pennsylvania, priority 2021, published 2024)
# Experiments:
# spleen = experiment: In vivo mRNA delivery, IVIS imaging of organs: spleen; set-up: species or system mice; key to Organs with luminescence: spleen: strong: Strong meant the luminescence intensity in that organ was relatively high, compared to other organs; weak: Weak meant the luminescence intensity in that organ was relatively low, compared to other organs; settings: for Organs with luminescence: spleen: Table 17, mice, IVIS, 4-6 h after injection, intensity relative to other organs; for Organs with luminescence: spleen (weak/strong): Table 14
# lung = experiment: In vivo mRNA delivery, IVIS imaging of organs: lung; set-up: species or system mice; key to Organs with luminescence: lung: strong: Strong meant the luminescence intensity in that organ was relatively high, compared to other organs; weak: Weak meant the luminescence intensity in that organ was relatively low, compared to other organs; settings: for Organs with luminescence: lung: Table 17, mice, IVIS, 4-6 h after injection, intensity relative to other organs; for Organs with luminescence: lung (weak/strong): Table 14
# BALB/c mice = experiment: In vivo mRNA delivery in mice with DNPs, whole-body bioluminescence imaging (IVIS); settings: Table 19; nonsymmetric IAJDs
# [1] = pKa measurements of individual IAJD molecules by titration; type: physicochemical; settings: ethanol saturated with NaCl, titrated with 0.1 M aqueous HCl, titration
# Summary of the method: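 pKa derived by half-equivalence-point analysis of a pH-meter titration curve: 0.1 M HCl added in 7.5 μL increments to a 1.5 mg/mL solution of each molecule in ethanol saturated with NaCl.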
# HEK293T cells = experiment: In vitro Luc-mRNA transfection, luciferase luminescence expression in HEK293T cells; type: cell-based, human; set-up: unit not given here; settings: n=3
# Summary of the method: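 HEK293T cells were transfected with nucleoside-modified firefly luciferase mRNA at 125 ng/well delivered in the test particles. TransIT and MC3-based LNPs at equal mRNA dose served as comparators. After 24 h (18-20 h in some runs) at 37° C the cells were lysed, and luciferase luminescence was read on a luminometer, in triplicate.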
# [2] = Table 16, HEK 293T cells, 125 ng/well
# [3] = Table 15, individual IAJD molecule
# [4] = HEK293T cells, Luc-mRNA 125 ng/well
SMILES,pKa ([1]; individual IAJD molecules),"pKa [1, 3]",Organs with luminescence: spleen (spleen),Organs with luminescence: lung (lung),"In vivo activity (total flux, p/s) (BALB/c mice)",Luminescence (HEK293T cells; [2]),Organs with luminescence: spleen (weak/strong) (spleen; imaging 5 h after injection),Organs with luminescence: lung (weak/strong) (lung; imaging 5 h after injection),Luminescence (HEK293T cells; [4]),Organs with luminescence: spleen (weak/strong) (spleen; imaging 6 h after injection),Organs with luminescence: lung (weak/strong) (lung; imaging 6 h after injection)
"CCCCCCCCCCCCCCCCCOc1cc(COC(=O)CCCN2CCN(CCO)CC2)cc(OCCCCCCCCCCC)c1 [IAJD 127, 3-(Heptadecyloxy)-5-(undecyloxy)benzyl 4-(4-(2-hydroxyethyl)piperazin-1-yl)butanoate]",6.52,,spleen (strong),"Lung (weak),",1.07 × 10^8 p/s,"147,731",,,,,
"CCCCCCCCCCCCCOc1cc(COC(=O)CCCN2CCN(C)CC2)cc(OCCCCCCCCCCC)c1 [IAJD 116, 3-(Tridecyloxy)-5-(undecyloxy)benzyl 4-(4-methylpiperazin-1-yl)butanoate]",6.51,,spleen (strong),"Lung (weak),",2.38 × 10^7 p/s,"192,213",,,,,
"CCCCCCCCCCCCCCCOc1cc(COC(=O)CCCN2CCN(CCO)CC2)cc(OCCCCCCCCCCCC)c1 [IAJD 144, 3-(Dodecyloxy)-5-(pentadecyloxy)benzyl 4-(4-(2-hydroxyethyl)piperazin-1-yl)butanoate]",6.51,,spleen (strong),"Lung (weak),",1.39 × 10^7 p/s,"253,672",,,,,
"CCCCCCCCCCCCCCCCCOc1cc(COC(=O)CCCN2CCN(C)CC2)cc(OCCCCCCCCCCC)c1 [IAJD 126, 3-(Heptadecyloxy)-5-(undecyloxy)benzyl 4-(4-methylpiperazin-1-yl)butanoate]",6.52,,spleen (strong),"Lung (weak),",3.21 × 10^7 p/s,675,,,,,
"CCCCCCCCCCCCCCCCOc1cc(COC(=O)CCCN2CCN(C)CC2)cc(OCCCCCCCCCCCC)c1 [IAJD 106, 3-(Dodecyloxy)-5-(hexadecyloxy)benzyl 4-(4-methylpiperazin-1-yl)butanoate]",,6.38,spleen (strong),"Lung (weak),",3.48 × 10^7 p/s,,,,309,spleen (strong),"Lung (weak),"

# Now from value to compound, other results behind:
pKa ([1]; individual IAJD molecules),"pKa [1, 3]",SMILES,Organs with luminescence: spleen (spleen),Organs with luminescence: lung (lung),"In vivo activity (total flux, p/s) (BALB/c mice)",Luminescence (HEK293T cells; [2]),Organs with luminescence: spleen (weak/strong) (spleen; imaging 5 h after injection),Organs with luminescence: lung (weak/strong) (lung; imaging 5 h after injection),Luminescence (HEK293T cells; [4]),Organs with luminescence: spleen (weak/strong) (spleen; imaging 6 h after injection),Organs with luminescence: lung (weak/strong) (lung; imaging 6 h after injection)
,6.24,"CCCCCCCCCCCCCCCCOc1cc(COC(=O)CCCN2CCN(C)CC2)cc(OCCCCCCCCCCC)c1 [IAJD 86, 3-(Hexadecyloxy)-5-(undecyloxy)benzyl 4-(4-methylpiperazin-1-yl)butanoate]",spleen (weak),"Lung (weak),",4.73 × 10^7 p/s,,spleen (weak),"Lung (weak),","47,066",,
6.33,,"CCCCCCCCCCCCCCCOc1cc(COC(=O)CCCN2CCN(C)CC2)cc(OCCCCCCCCCCCC)c1 [IAJD 143, 3-(Dodecyloxy)-5-(pentadecyloxy)benzyl 4-(4-methylpiperazin-1-yl)butanoate]",spleen (strong),"Lung (strong),",1.28 × 10^7 p/s,"71,851",,,,,
6.33,,"CCCCCCCCCCCCCCCOc1cc(COC(=O)CCCN2CCN(C)CC2)cc(OCCCCCCCCCCC)c1 [IAJD 118, 3-(Pentadecyloxy)-5-(undecyloxy)benzyl 4-(4-methylpiperazin-1-yl)butanoate]",spleen (strong),"Lung (weak),",1.46 × 10^7 p/s,"568,354",,,,,
